Publication PMC6597546, “Identification of a potent benzoxaborole drug candidate for treating cryptosporidiosis” (Nature Communications, 2019)

System: C. parvum invasion of HCT-8 host cells
Test: HCT-8 host cell invasion assay
Type: cell-based, Cryptosporidium parvum
Conditions: HCT-8 host cells, 3 h
Method: The invasion assay, DNA replication assay, asexual to sexual stage conversion, and time-kill curve assays were performed using fluorescence microscopy to enumerate parasites and host cell nuclei. Staining protocols are individually described for each assay. Unless noted otherwise, the details of image acquisition were as follows. An inverted Nikon Eclipse Ti2000 microscope with an automated stage and Perfect Focus was used with NIS-Elements Advanced Research software (Nikon, USA, version 4.30.01) to image the wells. The microscope was programmed to focus on the center of each well and then take a 3 × 3 composite image per well using a 20 × (0.45 NA) objective. Images were exported as .tiff files and parasites and host nuclei counted using a custom macro on ImageJ (National Institutes of Health, version 1.52a). Data were analyzed using Microsoft Excel and GraphPad Prism (version 6.01).
Host cell invasion was assayed by allowing C. parvum to invade host cell monolayers in the presence of compound, and enumerating parasites and host cells after just 3 h (i.e., before completion of a parasite division cycle)[38]. HCT-8 cells were grown in RPMI media supplemented with 120 U per mL penicillin and 120 μg per mL streptomycin and 10% heat inactivated fetal bovine serum (complete media) and C. parvum Iowa isolate oocysts from Bunch Grass Farms (Deary, ID) were used for infection. When cells reached a confluence of >99%, media was removed and replaced with 25 µL per well of fresh media containing twice the indicated concentrations of compounds and incubated for 1 h at 37 °C in a humidified CO2 incubator. In the meantime, oocysts were induced for excystation by first treating with 10 mM hydrochloric acid (diluted with distilled water) for 10 min at 37 °C followed by 2 mM sodium taurocholate (in phosphate buffered saline (PBS) with calcium and magnesium) for 10 min at 16 °C. Before and after each treatment, oocysts were spun down at 14,000 × g for 4.5 min and supernatant was removed. […]

SMILES: CC1(C)OB(O)c2cc(NC(=O)c3ccc(-n4cccn4)cc3Cl)ccc21 [AN7973]
- activity in C. parvum invasion assay: no activity
